Source: US7537906B2, “Apoptosis inducer and method of screening for a substance inhibiting acylated homoserine lactone” (priority 2003, dated 2009)

Experiments:
caspase-3 = test: Caspase activity by Western blot (cleaved caspase-3) in CaCo-2 cells; assay type: cell-based, human
Protocol: (§1) The activities of caspase (caspase-3 and caspase-9) and PARP (poly-ADP ribose polymerase) were measured in a manner similar to those in Examples 1 and 2 by Western blot analysis using each of anti-activated (cleaved) caspase antibodies, that is, an anti-cleaved caspase-3 antibody, an anti-cleaved caspase-9 antibody (D330) and an anti-cleaved PARP antibody (D214).
(§2) N-(3-oxododecanoyl)-L-homoserine lactones with final concentrations of 30 μM and 100 μM were each added to cultured CaCo-2 cells. Caspase-3, caspase-9 and PARP activities were analyzed over time by Western blot at 0 hours, 1 hour, 2 hours, 4 hours, 6 hours, 8 hours and 10 hours after culture. […] Whereas at 30 μM, activated caspase-3 began to be detected 1 hour after stimulation and the activity lasted until 4 hours after stimulation, at 100 μM the activity peaked at 6 hours and lasted until 10 hours after stimulation. Cleaved caspase-9 and cleaved PARP were detected by reprobing each membrane.
(§3) Next, 3 hours of reaction with N-(3-oxododecanoyl)-L-homoserine lactone was carried out at concentrations of 0, 1, 10, 30, and 100 μM, and then caspase and PARP activities were measured.

caspase-9 = test: Caspase activity by Western blot (cleaved caspase-9) in CaCo-2 cells; assay type: cell-based, human
Protocol: as §1, §2, §3

IL-12 = settings: mouse macrophage culture system; cited from earlier work
Akt = Akt activity (phospho-Akt) by Western blot in CaCo-2 cells; assay type: cell-based, human
Protocol: CaCo-2, the carcinoma cell line of human colon cancer, was purchased from American Type Culture Collection (ATCC), and cultured at 37° C. in the presence of 5% CO2 using a DMEM medium containing 10% FCS, 1% NEAA, and 1% P/S (100 units/ml penicillin and 100 μg/ml streptomycin).
6×10^5 CaCo-2 cells were inoculated per dish using 6 cm dishes (NUNC), washed twice with phosphate buffered saline (PBS) (-), and then cultured for 24 hours in a serum-free DMEM medium containing 1% NEAA. Subsequently, at a final concentration of 100 μM, homoserine lactone hydrochloride, N-butyryl-L-homoserine lactone, N-(3-oxohexanoyl)-L-homoserine lactone and N-(3-oxododecanoyl)-L-homoserine lactone were each added, and then each solution was allowed to react for 10 minutes. In addition, purified acylated homoserine lactone that was used herein had been dissolved in DMSO in a concentration 400 times higher than the target final concentration, and then subjected to filter sterilization (φ 0.22 μm). DMSO at a final concentration of 0.25% was used as a control. In addition, α-tubulin was used as an internal standard.
After reaction, the product was washed twice with cold PBS (-), and then frozen at −80° C. The cells were thawed on ice, 200 μl of a lysis buffer (50 mM HEPES, pH7.5, 50 mM NaCl, 1 mM EDTA, 1.5 mM MgCl2, 1% Triton X-100, 10% glycerine, 10 mM sodium pyrophosphate, 1 mM Na3VO4, 100 mM NaF, 1 mM PMSF, 10 μg/ml aprotinin and 10 μg/ml leupeptin) was added, and then the cells were scraped off using a scraper. The cells were allowed to stand on ice for 20 minutes, and then centrifuged at 14,000 rpm at 4° C. for 15 minutes, thereby collecting the supernatant. Concentration of the collected protein was measured, and protein equivalent to 50 μg was subjected to SDS-PAGE. After electrophoresis, the product was blotted on a PVDF membrane. When phospho-Akt was measured, blocking was carried out with 5% skim milk/Tris-buffered saline containing 0.1% Tween 20 (TBS-T), and the anti-phospho-Akt ([…]) antibody and the HRP-labeled anti-rabbit IgG antibody were used as a primary antibody and a secondary antibody, respectively. For α-tubulin used as an internal standard, blocking was carried out with 5% bovine serum albumin (BSA)/TBS-T, and the anti-α-tubulin (Ab-1) and the HRP-labeled anti-mouse IgG antibody were used as a primary antibody and a secondary antibody, respectively. For band detection, Renaissance™ Western Blot Chemiluminescence […] Reagent Plus (NEN) or Western Blotting Luminol Reagent (SANTA CRUZ BIOTECHNOLOGY) was used. […] In addition in the figure that is described below, HSL means homoserine lactone hydrochloride, C4-HSL means N-butyryl-L-homoserine lactone, 3-oxo-C6-HSL means N-(3-oxohexanoyl)-L-homoserine lactone, and 3-oxo-C12-HSL means N-(3-oxododecanoyl)-L-homoserine lactone.
After cell culture, N-(3-oxododecanoyl)-L-homoserine lactones with final concentrations of 0 μM (0.25% DMSO), 1 μM, 10 μM, 30 μM and 100 μM were each added. Akt activity was analyzed by Western blot in a manner similar to that used in (1), except for carrying out reaction for 10 minutes (FIG. 2).
After cell culture, N-(3-oxododecanoyl)-L-homoserine lactones with final concentrations of 30 μM and 100 μM were each added. For each case, Akt activity was measured by Western blot in a manner similar to that in (1), except for carrying out stimulation with acylated homoserine lactone in a short time course of 0, 5, 10, 30 and 60 minutes (FIG. 4), and in a long time course of 0, 10 minutes, 60 minutes, 2 hours, 4 hours, 6 hours, 8 hours and 10 hours (FIG. 5). In the case of stimulation at 30 μM, the inhibition of Akt activity peaked at 5 minutes, and lasted until 60 minutes after stimulation, and then returned to the base level within 2 hours. On the other hand, in the case of stimulation at […], the inhibition of Akt activity peaked at 5 minutes and lasted until 6 hours after stimulation. […]

[1] = test system: PARP (poly-ADP ribose polymerase); test: PARP activity by Western blot (cleaved PARP) in CaCo-2 cells; assay type: cell-based, human
Protocol: as §1, §2, §3

[2] = 3 hours of reaction, 0, 1, 10, 30 and 100 μM

Structure (SMILES): CCCCCCCCCC(=O)CC(=O)N[C@H]1CCOC1=O [N-(3-oxododecanoyl)-L-homoserine lactone]
- caspase-3 activity lasted until (after stimulation) (caspase-3; 30 μM): 4 h
- time at which activated caspase-3 began to be detected after stimulation (caspase-3; 30 μM): 1 h
- caspase-3 activity lasted until (after stimulation) (caspase-3; 100 μM): 10 h
- time of peak caspase-3 activity (caspase-3; 100 μM): 6 h
- concentration at which cleaved caspase (caspase-3) was detected (caspase-3; [2]): ≥ 30 µM
- caspase-9 activity over time (caspase-9; 30 μM): strong at 1, 2 and 4 hours
- weak caspase-9 activity lasted until (after stimulation) (caspase-9; 30 μM): 8 h
- strong caspase-9 activity lasted until (after stimulation) (caspase-9; 100 μM): 8 h
- concentration at which cleaved caspase (caspase-9) was detected (caspase-9; [2]): ≥ 30 µM
- IL-12 production (IL-12): promotes
- Akt activity, % of that where no stimulation was provided (Akt; 10 μM, 10 minutes): 79%
- Akt activity, % of that where no stimulation was provided (Akt; 30 μM, 10 minutes): 31%
- Akt activity, % of that where no stimulation was provided (Akt; 100 μM, 10 minutes): 14%
- level of phosphorylated Akt (Akt; 100 μM, 10 minutes): significantly decreased
- concentration at which levels of phosphorylated Akt significantly decreased (Akt; 10 minutes): ≥ 10 µM
- time at which inhibition of Akt activity peaked (Akt; stimulation at 10 μM): 5 min
- inhibition of Akt activity lasted until (after stimulation) (Akt; stimulation at 30 μM): 60 min
- time at which inhibition of Akt activity peaked (Akt; stimulation at 30 μM): 5 min
- time for Akt activity to return to the base level (Akt; stimulation at 30 μM): ≤ 2 h
- inhibition of Akt activity lasted until (after stimulation) (Akt; stimulation at 100 μM): 360 min
- time at which inhibition of Akt activity peaked (Akt; stimulation at 100 μM): 5 min
- cleaved PARP over time ([1]; 30 μM and 100 μM): behavior similar to that of cleaved caspase-9
- concentration at which cleaved PARP was detected [1, 2]: ≥ 30 µM
